From US10988477B2 (Merck Patent GmbH, priority 2018, dated 2021) come the findings set out here.

The target of assay [1] is GCN2 kinase (Homo sapiens, UniProt Q9P2K8). As to the kind of experiment: GCN2 enzyme inhibition assay (Transcreener ADP2 fluorescence polarization). The settings on record: 280 μM ATP. In kind it is biochemical. A digest of the protocol:
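ADP formation read by Transcreener FP after a 1 h, 25 °C kinase reaction containing 280 μM ATP, 200 μM (RS)7 substrate and 4 nM GCN2, pH 7.5 Tris buffer. Compounds (0–8 μM final) were added 10 min before ATP. Percent inhibition gave IC50 and apparent Ki via tight-binding fit.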

Assay [2] concerns the target intracellular GCN2 (phosphorylation of the GCN2 substrate eIF2α) (Homo sapiens, UniProt Q9P2K8). As to the kind of experiment: GCN2 cellular inhibition assay (AlphaScreen SureFire P-eIF2α Ser51, borrelidin-treated U2OS cells). It counts as cell-based. Particulars: biomarker assay, phosphorylated eIF2α Ser51 in borrelidin-treated U2OS cells. The gist of the method: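 First, U2OS cells are plated and left overnight at 37 °C. Next, compounds (from 40 μM final, 4-fold steps) and 10 μM borrelidin are added for 1 h, cells lysed, and phospho-Ser51 eIF2α detected by AlphaScreen bead sandwich. Inhibition is computed versus borrelidin-only wells.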

Setting [3] is: compounds of Formula II, 4 nM GCN2 kinase.
Where [4] appears, read: Enzyme activity for compounds of Formula IV, Ki(app), 25° C.

Chain of intracellular GCN2 (phosphorylation of the GCN2 substrate eIF2α) (Q9P2K8 whole entry): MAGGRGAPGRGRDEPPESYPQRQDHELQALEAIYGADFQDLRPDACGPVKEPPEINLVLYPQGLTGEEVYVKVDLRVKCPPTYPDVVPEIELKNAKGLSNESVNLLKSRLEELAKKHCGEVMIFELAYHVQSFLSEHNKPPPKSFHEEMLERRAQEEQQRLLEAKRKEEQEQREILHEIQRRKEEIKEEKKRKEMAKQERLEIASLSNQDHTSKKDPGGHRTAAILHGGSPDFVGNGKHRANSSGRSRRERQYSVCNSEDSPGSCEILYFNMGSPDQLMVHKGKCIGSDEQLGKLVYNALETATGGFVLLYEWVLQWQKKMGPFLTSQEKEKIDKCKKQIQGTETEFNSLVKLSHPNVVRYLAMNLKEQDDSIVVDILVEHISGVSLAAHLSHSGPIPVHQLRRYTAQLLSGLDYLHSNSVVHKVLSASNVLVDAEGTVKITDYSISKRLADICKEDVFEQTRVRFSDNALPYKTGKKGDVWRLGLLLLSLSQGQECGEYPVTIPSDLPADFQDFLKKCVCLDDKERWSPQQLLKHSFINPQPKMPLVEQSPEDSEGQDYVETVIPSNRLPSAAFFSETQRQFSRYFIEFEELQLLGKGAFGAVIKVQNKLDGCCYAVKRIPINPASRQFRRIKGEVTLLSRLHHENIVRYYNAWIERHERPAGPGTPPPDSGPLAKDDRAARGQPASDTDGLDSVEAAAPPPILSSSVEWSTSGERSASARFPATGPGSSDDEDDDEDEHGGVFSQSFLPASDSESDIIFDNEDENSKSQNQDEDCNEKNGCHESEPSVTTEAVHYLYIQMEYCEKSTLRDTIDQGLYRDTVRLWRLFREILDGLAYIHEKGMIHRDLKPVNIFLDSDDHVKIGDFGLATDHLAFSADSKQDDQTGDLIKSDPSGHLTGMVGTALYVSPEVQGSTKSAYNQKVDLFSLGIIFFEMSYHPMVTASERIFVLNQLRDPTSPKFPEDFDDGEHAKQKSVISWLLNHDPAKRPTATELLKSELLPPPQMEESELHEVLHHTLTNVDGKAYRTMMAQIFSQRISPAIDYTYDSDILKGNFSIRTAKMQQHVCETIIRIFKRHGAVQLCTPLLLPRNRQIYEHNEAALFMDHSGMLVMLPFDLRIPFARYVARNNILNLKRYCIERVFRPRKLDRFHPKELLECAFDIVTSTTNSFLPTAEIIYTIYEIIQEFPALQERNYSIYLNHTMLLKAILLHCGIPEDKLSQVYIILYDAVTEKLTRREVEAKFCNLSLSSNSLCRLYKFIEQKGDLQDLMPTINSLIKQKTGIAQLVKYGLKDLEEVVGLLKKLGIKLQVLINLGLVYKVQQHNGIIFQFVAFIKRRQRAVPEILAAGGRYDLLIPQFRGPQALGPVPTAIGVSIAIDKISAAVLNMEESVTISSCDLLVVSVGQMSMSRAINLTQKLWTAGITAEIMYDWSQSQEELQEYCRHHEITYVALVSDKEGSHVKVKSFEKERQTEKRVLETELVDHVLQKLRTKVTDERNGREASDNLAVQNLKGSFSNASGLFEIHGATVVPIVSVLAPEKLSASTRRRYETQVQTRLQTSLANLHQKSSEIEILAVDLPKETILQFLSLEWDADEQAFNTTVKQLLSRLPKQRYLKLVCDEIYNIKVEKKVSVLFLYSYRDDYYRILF
Chain of GCN2 kinase (Q9P2K8 whole entry): as above

Compound `CS(=O)(=O)N1CC2CCCN(c3cc(-c4cnc5ccc(C(F)F)nn45)ncn3)C2C1` (stereo not shown) [II-320, 6-(Difluoromethyl)-3-(6-(6-(methylsulfonyl)octahydro-1H-pyrrolo[3,4-b]pyridin-1-yl)pyrimidin-4-yl)imidazo[1,2-b]pyridazine] displayed a Ki in assay [1] (setting [3]) of 10 to 1000 nM. The compound further showed an IC50 in assay [2] (compounds of Formula II) of more than 5000 nM.
In turn, `FC(F)c1ccc2ncc(-c3cc(N4CCC(Cc5ccn[nH]5)CC4)ncn3)n2n1` [II-217, 3-(6-(4-((1H-Pyrazol-5-yl)methyl)piperidin-1-yl)pyrimidin-4-yl)-6-(difluoromethyl)imidazo[1,2-b]pyridazine] gave a Ki in assay [1] (setting [3]) of 10 to 1000 nM. Further, the IC50 in assay [2] (compounds of Formula II) fell in the range of 500 to 5000 nM.
On to `Clc1cn2c(-c3nccc(N4CCOC(c5cn[nH]c5)C4)n3)cnc2cn1` (stereo not shown) [IV-6, 4-(2-(6-Chloroimidazo[1,2-a]pyrazin-3-yl)pyrimidin-4-yl)-2-(1H-pyrazol-4-yl)morpholine], for which the Ki in assay [1] (setting [4]) is less than 10 nM. Also, the IC50 in assay [2] (compounds of Formula IV) was less than 500 nM.
As for `C[C@H]1[C@@H](N=S(C)(C)=O)CCCN1c1cc(-c2cnc3ccc(C(F)F)nn23)ncn1` (single isomer, unassigned) [II-593], the Ki in assay [1] (setting [3]) is less than 10 nM. The IC50 in assay [2] (compounds of Formula II) is less than 500 nM.
`OC1CCCN(c2ccnc(-c3cnc4cnc(C(F)(F)F)cn34)n2)C1` (stereo not shown) [IV-437, 1-(2-(6-(Trifluoromethyl)imidazo[1,2-a]pyrazin-3-yl)pyrimidin-4-yl)piperidin-3-ol] had a Ki in assay [1] (setting [4]) of 100 to 1000 nM. Besides, the IC50 in assay [2] (compounds of Formula IV) is more than 5000 nM.
As to `FC(F)c1ccc2ncc(-c3cc(N4CCCCC4)ncn3)n2n1` [II-308, 6-(Difluoromethyl)-3-(6-(piperidin-1-yl)pyrimidin-4-yl)imidazo[1,2-b]pyridazine], the Ki in assay [1] (setting [3]) is 10 to 1000 nM. For the same compound, the IC50 in assay [2] (compounds of Formula II) is more than 5000 nM.
On the same counts, the results for `NS(=O)(=O)N1CCC2CCN(c3cc(-c4cnc5ccc(C(F)F)nn45)ncn3)C2C1` (stereo not shown) [II-344, 1-(6-(6-(Difluoromethyl)imidazo[1,2-b]pyridazin-3-yl)pyrimidin-4-yl)octahydro-6H-pyrrolo[2,3-c]pyridine-6-sulfonamide] are less than 10 nM and less than 500 nM.
Take `CC1CN(c2cc(-c3cnc4ccc(C(F)F)nn34)ncn2)C(C)C(c2cn[nH]c2)N1` (single isomer, unassigned) [II-652, 6-(Difluoromethyl)-3-(6-(2,5-dimethyl-3-(1H-pyrazol-4-yl)piperazin-1-yl)pyrimidin-4-yl)imidazo[1,2-b]pyridazine]: the Ki in assay [1] (setting [3]) is 10 to 1000 nM. The IC50 in assay [2] (compounds of Formula II) lay within 500 to 5000 nM.
`FC(F)(F)c1cn2c(-c3nccc(N4CCCC(c5cn[nH]c5Cl)C4)n3)cnc2cn1` (stereo not shown) [IV-601, 3-(4-(3-(5-Chloro-1H-pyrazol-4-yl)piperidin-1-yl)pyrimidin-2-yl)-6-(trifluoromethyl)imidazo[1,2-a]pyrazine] displayed a Ki in assay [1] (setting [4]) of less than 10 nM. This compound also gave an IC50 in assay [2] (compounds of Formula IV) of less than 500 nM.
`CC1CN(c2ccnc(-c3cnc4cnc(C(F)(F)F)cn34)n2)C(C)C(c2c[nH]cn2)O1` (single isomer, unassigned) [IV-638, 2-(1H-Imidazol-4-yl)-3,6-dimethyl-4-(2-(6-(trifluoromethyl)imidazo[1,2-a]pyrazin-3-yl)pyrimidin-4-yl)morpholine] gave a Ki in assay [1] (setting [4]) of 100 to 1000 nM. For the same compound, the IC50 in assay [2] (compounds of Formula IV) was more than 5000 nM.
On the same counts, the results for `NC(=O)C1COCCN(c2ccnc(-c3cnc4cnc(C(F)(F)F)cn34)n2)C1` (stereo not shown) [IV-425, 4-(2-(6-(Trifluoromethyl)imidazo[1,2-a]pyrazin-3-yl)pyrimidin-4-yl)-1,4-oxazepane-6-carboxamide] are 100 to 1000 nM and more than 5000 nM.
The corresponding values for `CN1CCN(c2ccnc(-c3cnc4cnc(C(F)F)cn34)n2)CC12CCNCC2` [IV-123, 4-(2-(6-(Difluoromethyl)imidazo[1,2-a]pyrazin-3-yl)pyrimidin-4-yl)-1-methyl-1,4,9-triazaspiro[5.5]undecane] are 100 to 1000 nM and more than 5000 nM.
In the case of `CS(=O)(=O)N1CCC2(CCN2c2cncc(-c3cnc4ccc(C(F)F)nn34)c2)CC1` [II-42, 6-(Difluoromethyl)-3-(5-(7-(methylsulfonyl)-1,7-diazaspiro[3.5]nonan-1-yl)pyridin-3-yl)imidazo[1,2-b]pyridazine], the Ki in assay [1] (setting [3]) lay in the range of 10 to 1000 nM. Moreover, in assay [2] (compounds of Formula II), the IC50 was more than 5000 nM.
For `CC(F)(F)c1ccc2ncc(-c3cc(N4CCO[C@H](CNS(C)(=O)=O)C4)ncn3)n2n1` [II-322, (S)—N-((4-(6-(6-(1,1-Difluoroethyl)imidazo[1,2-b]pyridazin-3-yl)pyrimidin-4-yl)morpholin-2-yl)methyl)methanesulfonamide], in assay [1] (setting [3]), the Ki fell in the range of 10 to 1000 nM. This compound showed an IC50 in assay [2] (compounds of Formula II) of more than 5000 nM.
Compound `CS(=O)(=O)N1CC2(CCCN(c3ccnc(-c4cnc5ccc(C(F)F)nn45)c3)C2)C1` had a Ki in assay [1] (setting [3]) of less than 10 nM. Besides, the IC50 in assay [2] (compounds of Formula II) is less than 500 nM.
The compound `CN1CCN(c2cc(-c3cnc4ccc(C(F)F)nn34)ncn2)C[C@H]1CNS(C)(=O)=O` [II-410] came in with a Ki in assay [1] (setting [3]) of 10 to 1000 nM. The compound further gave a half-inhibitory concentration (IC50) in assay [2] (compounds of Formula II) of 500 to 5000 nM.
The compound `OC1CCN(C2CCN(c3cc(-c4cnc5ccc(C(F)F)nn45)ncn3)C2)C1` (stereo not shown) [II-352, 1′-(6-(6-(Difluoromethyl)imidazo[1,2-b]pyridazin-3-yl)pyrimidin-4-yl)-[1,3′-bipyrrolidin]-3-ol] came in with a Ki in assay [1] (setting [3]) of 10 to 1000 nM. Further, in assay [2] (compounds of Formula II), the IC50 is more than 5000 nM.
In turn, `C[C@@H]1CCCN(c2ccnc(-c3cnc4cnc(C(F)F)cn34)n2)C1` [IV-129, (R)-6-(Difluoromethyl)-3-(4-(3-methylpiperidin-1-yl)pyrimidin-2-yl)imidazo[1,2-a]pyrazine] came in with a Ki in assay [1] (setting [4]) of 100 to 1000 nM. The compound further registered a half-maximal inhibitory concentration (IC50) in assay [2] (compounds of Formula IV) of more than 5000 nM.
In assay [1] (setting [3]), `CC1(C)CN(c2cc(-c3cnc4ccc(C(F)F)nn34)ncn2)C[C@H](CNS(C)(=O)=O)O1` [II-257, (R)—N-((4-(6-(6-(Difluoromethyl)imidazo[1,2-b]pyridazin-3-yl)pyrimidin-4-yl)-6,6-dimethylmorpholin-2-yl)methyl)methanesulfonamide] registered a Ki of 10 to 1000 nM. In assay [2] (compounds of Formula II), this compound had a half-maximal inhibitory concentration (IC50) of 500 to 5000 nM.
The corresponding values for `CS(=O)(=O)CC1CCCN(c2cc(-c3cnc4ccc(C(F)(F)F)nn34)ccn2)C1` (stereo not shown) [II-227, 3-(2-(3-((Methylsulfonyl)methyl)piperidin-1-yl)pyridin-4-yl)-6-(trifluoromethyl)imidazo[1,2-b]pyridazine] are 10 to 1000 nM and more than 5000 nM.
The compound `Cc1cc(N2CCC(c3cn[nH]c3)C2)nc(-c2cnc3cnc(C(F)(F)F)cn23)n1` (stereo not shown) [IV-668, 3-(4-(3-(1H-Pyrazol-4-yl)pyrrolidin-1-yl)-6-methylpyrimidin-2-yl)-6-(trifluoromethyl)imidazo[1,2-a]pyrazine] gave a Ki in assay [1] (setting [4]) of 10 to 100 nM. The same compound had an IC50 in assay [2] (compounds of Formula IV) of 500 to 5000 nM.
Take `CC1C(c2cn[nH]c2)OCCN1c1ccnc(-c2cnc3cnc(C(F)(F)F)cn23)n1` (single isomer, unassigned) [IV-318, 3-Methyl-2-(1H-pyrazol-4-yl)-4-(2-(6-(trifluoromethyl)imidazo[1,2-a]pyrazin-3-yl)pyrimidin-4-yl)morpholine]: the Ki in assay [1] (setting [4]) was less than 10 nM. Further, in assay [2] (compounds of Formula IV), the IC50 was less than 500 nM.
Regarding `CC(=O)NCC1CCCN(c2cc(-c3cnc4ccc(C(F)F)nn34)ncn2)C1` (stereo not shown) [II-261, N-((1-(6-(6-(Difluoromethyl)imidazo[1,2-b]pyridazin-3-yl)pyrimidin-4-yl)piperidin-3-yl)methyl)acetamide], the Ki in assay [1] (setting [3]) was 10 to 1000 nM. In addition, the half-inhibitory concentration (IC50) in assay [2] (compounds of Formula II) was in the range of 500 to 5000 nM.
In assay [1] (setting [3]), `O=S(=O)(NCC1CCCN(c2cc(-c3cnc4ccc(C(F)F)nn34)ncn2)C1)C(F)(F)F` (stereo not shown) [II-379, N-((1-(6-(6-(Difluoromethyl)imidazo[1,2-b]pyridazin-3-yl)pyrimidin-4-yl)piperidin-3-yl)methyl)-1,1,1-trifluoromethanesulfonamide] yielded a Ki of 10 to 1000 nM. For the same compound, the IC50 in assay [2] (compounds of Formula II) lay in the range of 500 to 5000 nM.
As for `Cc1[nH]ncc1[C@H]1CN(c2cc(-c3cnc4ccc(C(F)(F)F)nn34)ncn2)C[C@H](C)O1` [II-765, (2S,6S)-2-methyl-6-(5-methyl-1H-pyrazol-4-yl)-4-(6-(6-(trifluoromethyl)imidazo[1,2-b]pyridazin-3-yl)pyrimidin-4-yl)morpholine], the IC50 in assay [1] (setting [3]) was 10 to 1000 nM; in assay [2] (compounds of Formula II), more than 5000 nM.
In assay [1] (setting [4]), `O=C1CCN(c2ccnc(-c3cnc4cnc(C(F)F)cn34)n2)CCN1` [IV-49, 1-(2-(6-(Difluoromethyl)imidazo[1,2-a]pyrazin-3-yl)pyrimidin-4-yl)-1,4-diazepan-5-one] yielded a Ki of 100 to 1000 nM. This compound also showed an IC50 in assay [2] (compounds of Formula IV) of more than 5000 nM.
The corresponding values for `CNC(=O)C1CCCN(c2ccnc(-c3cnc4cnc(C(F)F)cn34)n2)C1` (stereo not shown) [IV-44, 1-(2-(6-(Difluoromethyl)imidazo[1,2-a]pyrazin-3-yl)pyrimidin-4-yl)-N-methylpiperidine-3-carboxamide] are 100 to 1000 nM and more than 5000 nM.
Take `NC(=O)c1cn2c(-c3cccc(N4CCCCC4)n3)cnc2cn1` [IV-204, 3-(6-(Piperidin-1-yl)pyridin-2-yl)imidazo[1,2-a]pyrazine-6-carboxamide]: the Ki in assay [1] (setting [4]) lay within 10 to 100 nM. Further, in assay [2] (compounds of Formula IV), the IC50 was more than 5000 nM.
For `CC1(O)CC(CNS(C)(=O)=O)CN(c2cc(-c3cnc4ccc(C(F)F)nn34)ncn2)C1` (single isomer, unassigned) [II-5, N-((1-(6-(6-(Difluoromethyl)imidazo[1,2-b]pyridazin-3-yl)pyrimidin-4-yl)-5-hydroxy-5-methylpiperidin-3-yl)methyl)methanesulfonamide], in assay [1] (setting [3]), the Ki is 10 to 1000 nM. In assay [2] (compounds of Formula II), this compound showed an IC50 of more than 5000 nM.
